Key:
Sarcoma cells = assay: Chemotherapeutic effect on subcutaneously inoculated sarcoma cells in ICR mice (tumor weight, i.p. once a day for 5 days); type: in vivo, female ICR mice; settings: for Inhibition rate / Inhibition rate (%) (entry: toxic): once a day for 5 days; for Inhibition rate: tumor weight 5 days after the administration; for Inhibition rate (%) (entry: toxic): 100 mg/kg/day i.p., group of five female ICR mice; for ED30: denominator of MTD/ED30; for ED30 / MTD: doses of the table in mg/kg/day; for ED30 / MTD / Therapeutic index (MTD/ED30): i.p. once a day for 5 days; for MTD: numerator of MTD/ED30; for Therapeutic index (MTD/ED30): ratio MTD/ED30
Method: Chemotherapeutic effect of the organic platinum complex (I) of this invention was investigated as follows.
Sarcoma cells (1.5×10^6 cells) were inoculated subcutaneously at inguinal region of a group of five female mice (ICR mice, five week age). Twenty four hours after the inoculation, a solution of test compound was intraperitoneally administered to the mice once a day for 5 days. The weight of tumor in the mice was measured 5 days after the administration.

[1] = Renal function indices (creatinine and urea in blood) in mice; type: in vivo; settings: dose required to induce 100% increase in the life span
Excerpt: The organic platinum complex of the invention also has advantageous properties such as less toxicity to kidney, remarkedly higher water solubility and is easily transferred into organs in vivo in comparison with known organic platinum complexes.

CC(=O)NC1C(=O)[O][Pt]2([NH]C3CCCCC3[NH]2)[O]C1=O (stereo not drawn) [Compound 1, [2-(acetylamino)malonato](trans-l-1,2-diaminocyclohexane)platinum (II)]
Inhibition rate (Sarcoma cells; 3.12 mg/kg/day i.p.): 28.4%
Inhibition rate (Sarcoma cells; 6.25 mg/kg/day i.p.): 36.0%
Inhibition rate (Sarcoma cells; 12.5 mg/kg/day i.p.): 52.3%
Inhibition rate (Sarcoma cells; 25 mg/kg/day i.p.): 64.8%
Inhibition rate (Sarcoma cells; 50 mg/kg/day i.p.): 89.4%
Inhibition rate (%) (entry: toxic) (Sarcoma cells): Toxic (5/5)
ED30 (Sarcoma cells): 3.6
MTD (Sarcoma cells): 50
influence on indices of renal functions such as the concentration of creatinine and ueas in blood [1]: no influences

COCCOCC(=O)NC1C(=O)[O][Pt-2]2([NH2+]C3CCCCC3[NH2+]2)[O]C1=O (stereo not drawn) [Compound 2, [2-[[(methoxyethoxy)acetyl]amino]malonato] (trans-l-1,2-diaminocyclohexane)platinum (II)]
Inhibition rate (Sarcoma cells; 6.25 mg/kg/day i.p.): 17.8%
Inhibition rate (Sarcoma cells; 12.5 mg/kg/day i.p.): 57.6%
Inhibition rate (Sarcoma cells; 25 mg/kg/day i.p.): 65.4%
Inhibition rate (Sarcoma cells; 50 mg/kg/day i.p.): 80.2%
Inhibition rate (%) (entry: toxic) (Sarcoma cells): Toxic (4/5)
ED30 (Sarcoma cells): 6.7
MTD (Sarcoma cells): 50
Therapeutic index (MTD/ED30) (Sarcoma cells): 7.5

CC(=O)NC1(C)C(=O)[O][Pt-2]2([NH2+]C3CCCCC3[NH2+]2)[O]C1=O (stereo not drawn) [Compound 3, [2-(acetylamino)-2-methylmalonato] (trans-l-1,2-diaminocyclohexane) platinum (II)]
Inhibition rate (Sarcoma cells; 6.25 mg/kg/day i.p.): 26.4%
Inhibition rate (Sarcoma cells; 12.5 mg/kg/day i.p.): 49.7%
Inhibition rate (Sarcoma cells; 25 mg/kg/day i.p.): 63.5%
Inhibition rate (Sarcoma cells; 50 mg/kg/day i.p.): 80.7%
Inhibition rate (%) (entry: toxic) (Sarcoma cells): Toxic (5/5)
ED30 (Sarcoma cells): 7.0
MTD (Sarcoma cells): 50
Therapeutic index (MTD/ED30) (Sarcoma cells): 7.1

Reference: patent publication US4882447A, “Novel organic platinum complex and process for the preparation thereof” (priority 1987, dated 1989)
